Legend:
Test in all cases: ATP level assay (CellTiter-Glo), percent of control
Format in all cases: cell-based
[1] = tested on: BxPC3 (pancreatic cancer); settings: two hour incubation; for activity at 100 µM: Homo sapiens, BXPC-3, 2 h, compound alone, control DMSO, read-out: POC (percent of control) BxPC3
H293 (kidney cancer) = settings: two hour incubation; for activity at 100 µM: 2 h, compound alone, control DMSO, read-out: POC (percent of control) H293
HDF (normal cells) = settings: two hour incubation; for activity at 100 µM: 2 h, compound alone, control DMSO, read-out: POC (percent of control) HDF
HeLa (cervical cancer) = settings: two hour incubation; for activity at 100 µM: Homo sapiens, HeLa, 2 h, compound alone, control DMSO, read-out: POC (percent of control) HeLa
[2] = tested on: MCF10A (non-cancerous breast); settings: two hour incubation; for activity at 100 µM: Homo sapiens, MCF-10A, 2 h, compound alone, control DMSO, read-out: POC (percent of control) MCF10A
MCF7 (breast cancer) = settings: two hour incubation; for activity at 100 µM: Homo sapiens, MCF7, 2 h, compound alone, control DMSO, read-out: POC (percent of control) MCF7
MDA-MB (breast cancer) = settings: two hour incubation; for activity at 100 µM: 2 h, compound alone, control DMSO, read-out: POC (percent of control) MDA-MB
NCI-H196 (lung cancer) = settings: two hour incubation; for activity at 100 µM: NCI-H196, 2 h, compound alone, control DMSO, read-out: POC (percent of control) NCI-H196
PC3 (prostate cancer) = settings: two hour incubation; for activity at 100 µM: 2 h, compound alone, control DMSO, read-out: POC (percent of control) PC3
SkBr3 (breast cancer) = settings: two hour incubation; for activity at 100 µM: Homo sapiens, SK-BR-3, 2 h, compound alone, control DMSO, read-out: POC (percent of control) SkBr3
T47D (breast cancer) = settings: two hour incubation; for activity at 100 µM: Homo sapiens, T47D, 2 h, compound alone, control DMSO, read-out: POC (percent of control) T47D
[3] = compound 100 uM + 2DG (about 10-20 mM)
[4] = compound 100 uM + rotenone (approximately 1.25 μM)

SMILES: O=S(=O)(NCc1ccco1)c1ccc(Cl)cc1 [Compound 20, 4-chloro-N-(furan-2-ylmethyl)benzenesulfonamide]
- activity at 100 µM [1]: 95.8%
- POC (percent of control) BxPC3 [1, 3]: 86.4% of control
- POC (percent of control) BxPC3 [1, 4]: 94.8% of control
- activity at 100 µM (H293 (kidney cancer)): 104%
- POC (percent of control) H293 (H293 (kidney cancer); [3]): 84.4% of control
- POC (percent of control) H293 (H293 (kidney cancer); [4]): 69.4% of control
- activity at 100 µM (HDF (normal cells)): 90.9%
- POC (percent of control) HDF (HDF (normal cells); [3]): 88.1% of control
- POC (percent of control) HDF (HDF (normal cells); [4]): 103.1% of control
- activity at 100 µM (HeLa (cervical cancer)): 103%
- POC (percent of control) HeLa (HeLa (cervical cancer); [3]): 91.7% of control
- POC (percent of control) HeLa (HeLa (cervical cancer); [4]): 117.2% of control
- activity at 100 µM [2]: 102%
- POC (percent of control) MCF10A [2, 3]: 78.1% of control
- POC (percent of control) MCF10A [2, 4]: 102.9% of control
- activity at 100 µM (MCF7 (breast cancer)): 138%
- POC (percent of control) MCF7 (MCF7 (breast cancer); [3]): 87.3% of control
- POC (percent of control) MCF7 (MCF7 (breast cancer); [4]): 124.6% of control
- activity at 100 µM (MDA-MB (breast cancer)): 97.4%
- POC (percent of control) MDA-MB (MDA-MB (breast cancer); [3]): 82.9% of control
- POC (percent of control) MDA-MB (MDA-MB (breast cancer); [4]): 98.5% of control
- activity at 100 µM (NCI-H196 (lung cancer)): 100%
- POC (percent of control) NCI-H196 (NCI-H196 (lung cancer); [3]): 90.6% of control
- POC (percent of control) NCI-H196 (NCI-H196 (lung cancer); [4]): 102.1% of control
- activity at 100 µM (PC3 (prostate cancer)): 91.1%
- POC (percent of control) PC3 (PC3 (prostate cancer); [3]): 83.8% of control
- POC (percent of control) PC3 (PC3 (prostate cancer); [4]): 100.4% of control
- activity at 100 µM (SkBr3 (breast cancer)): 104%
- POC (percent of control) SkBr3 (SkBr3 (breast cancer); [3]): 96.7% of control
- POC (percent of control) SkBr3 (SkBr3 (breast cancer); [4]): 102.5% of control
- activity at 100 µM (T47D (breast cancer)): 73.9%
- POC (percent of control) T47D (T47D (breast cancer); [3]): 69.7% of control
- POC (percent of control) T47D (T47D (breast cancer); [4]): 101.6% of control

SMILES: O=S(=O)(NCc1cncnc1)c1ccc(Cl)cc1 [Compound 14, 4-chloro-N-(pyrimidin-5-ylmethyl)benzenesulfonamide]
- activity at 100 µM [1]: 93.8%
- POC (percent of control) BxPC3 [1, 3]: 95.4% of control
- POC (percent of control) BxPC3 [1, 4]: 60.9% of control
- activity at 100 µM (H293 (kidney cancer)): 84.9%
- POC (percent of control) H293 (H293 (kidney cancer); [3]): 82.1% of control
- POC (percent of control) H293 (H293 (kidney cancer); [4]): 82.4% of control
- activity at 100 µM (HDF (normal cells)): 96.1%
- POC (percent of control) HDF (HDF (normal cells); [3]): 96.3% of control
- POC (percent of control) HDF (HDF (normal cells); [4]): 90.9% of control
- activity at 100 µM (HeLa (cervical cancer)): 98.3%
- POC (percent of control) HeLa (HeLa (cervical cancer); [3]): 106.4% of control
- POC (percent of control) HeLa (HeLa (cervical cancer); [4]): 102.1% of control
- activity at 100 µM [2]: 103%
- POC (percent of control) MCF10A [2, 3]: 119.1% of control
- POC (percent of control) MCF10A [2, 4]: 94.3% of control
- activity at 100 µM (MCF7 (breast cancer)): 126%
- POC (percent of control) MCF7 (MCF7 (breast cancer); [3]): 109.8% of control
- POC (percent of control) MCF7 (MCF7 (breast cancer); [4]): 94.4% of control
- activity at 100 µM (MDA-MB (breast cancer)): 105%
- POC (percent of control) MDA-MB (MDA-MB (breast cancer); [3]): 86% of control
- POC (percent of control) MDA-MB (MDA-MB (breast cancer); [4]): 87.5% of control
- activity at 100 µM (NCI-H196 (lung cancer)): 86.9%
- POC (percent of control) NCI-H196 (NCI-H196 (lung cancer); [3]): 107.3% of control
- POC (percent of control) NCI-H196 (NCI-H196 (lung cancer); [4]): 109% of control
- activity at 100 µM (PC3 (prostate cancer)): 111%
- POC (percent of control) PC3 (PC3 (prostate cancer); [3]): 101.7% of control
- POC (percent of control) PC3 (PC3 (prostate cancer); [4]): 101.7% of control
- activity at 100 µM (SkBr3 (breast cancer)): 107%
- POC (percent of control) SkBr3 (SkBr3 (breast cancer); [3]): 96.9% of control
- POC (percent of control) SkBr3 (SkBr3 (breast cancer); [4]): 98.3% of control
- activity at 100 µM (T47D (breast cancer)): 86.7%
- POC (percent of control) T47D (T47D (breast cancer); [3]): 106.4% of control
- POC (percent of control) T47D (T47D (breast cancer); [4]): 114.8% of control

SMILES: CS(=O)(=O)NCc1c[nH]c2ccccc12 [Compound 26, N-(1H-indol-3-ylmethyl)methanesulfonamide]
- activity at 100 µM [1]: 99.1%
- POC (percent of control) BxPC3 [1, 3]: 86.6% of control
- POC (percent of control) BxPC3 [1, 4]: 88.8% of control
- activity at 100 µM (H293 (kidney cancer)): 110%
- POC (percent of control) H293 (H293 (kidney cancer); [3]): 72.9% of control
- POC (percent of control) H293 (H293 (kidney cancer); [4]): 72% of control
- activity at 100 µM (HDF (normal cells)): 106%
- POC (percent of control) HDF (HDF (normal cells); [3]): 91.1% of control
- POC (percent of control) HDF (HDF (normal cells); [4]): 86.9% of control
- activity at 100 µM (HeLa (cervical cancer)): 90.4%
- POC (percent of control) HeLa (HeLa (cervical cancer); [3]): 106.9% of control
- POC (percent of control) HeLa (HeLa (cervical cancer); [4]): 96.3% of control
- activity at 100 µM [2]: 106%
- POC (percent of control) MCF10A [2, 3]: 99.9% of control
- POC (percent of control) MCF10A [2, 4]: 81% of control
- activity at 100 µM (MCF7 (breast cancer)): 114%
- POC (percent of control) MCF7 (MCF7 (breast cancer); [3]): 95.9% of control
- POC (percent of control) MCF7 (MCF7 (breast cancer); [4]): 119.8% of control
- activity at 100 µM (MDA-MB (breast cancer)): 90.2%
- POC (percent of control) MDA-MB (MDA-MB (breast cancer); [3]): 87.6% of control
- POC (percent of control) MDA-MB (MDA-MB (breast cancer); [4]): 79.2% of control
- activity at 100 µM (NCI-H196 (lung cancer)): 220%
- POC (percent of control) NCI-H196 (NCI-H196 (lung cancer); [3]): 91.3% of control
- POC (percent of control) NCI-H196 (NCI-H196 (lung cancer); [4]): 80.8% of control
- activity at 100 µM (PC3 (prostate cancer)): 92.3%
- POC (percent of control) PC3 (PC3 (prostate cancer); [3]): 111.5% of control
- POC (percent of control) PC3 (PC3 (prostate cancer); [4]): 89.6% of control
- activity at 100 µM (SkBr3 (breast cancer)): 109%
- POC (percent of control) SkBr3 (SkBr3 (breast cancer); [3]): 95.7% of control
- POC (percent of control) SkBr3 (SkBr3 (breast cancer); [4]): 97.1% of control
- activity at 100 µM (T47D (breast cancer)): 93.3%
- POC (percent of control) T47D (T47D (breast cancer); [3]): 101% of control
- POC (percent of control) T47D (T47D (breast cancer); [4]): 90.8% of control

SMILES: Cc1ccc(S(=O)(=O)NCc2ccc3ncccc3c2)cc1 [Compound 22, 4-methyl-N-(quinolin-6-ylmethyl)benzenesulfonamide]
- activity at 100 µM [1]: 99.1%
- POC (percent of control) BxPC3 [1, 4]: 70.8% of control
- activity at 100 µM (H293 (kidney cancer)): 122%
- POC (percent of control) H293 (H293 (kidney cancer); [3]): 69.9% of control
- POC (percent of control) H293 (H293 (kidney cancer); [4]): 90.9% of control
- activity at 100 µM (HDF (normal cells)): 89.7%
- POC (percent of control) HDF (HDF (normal cells); [3]): 76.3% of control
- POC (percent of control) HDF (HDF (normal cells); [4]): 85.5% of control
- activity at 100 µM (HeLa (cervical cancer)): 101%
- POC (percent of control) HeLa (HeLa (cervical cancer); [3]): 94.5% of control
- POC (percent of control) HeLa (HeLa (cervical cancer); [4]): 105.2% of control
- activity at 100 µM [2]: 105%
- POC (percent of control) MCF10A [2, 3]: 70.2% of control
- POC (percent of control) MCF10A [2, 4]: 96.9% of control
- activity at 100 µM (MCF7 (breast cancer)): 113%
- POC (percent of control) MCF7 (MCF7 (breast cancer); [3]): 107.1% of control
- POC (percent of control) MCF7 (MCF7 (breast cancer); [4]): 96.4% of control
- activity at 100 µM (MDA-MB (breast cancer)): 96.7%
- POC (percent of control) MDA-MB (MDA-MB (breast cancer); [3]): 86.5% of control
- POC (percent of control) MDA-MB (MDA-MB (breast cancer); [4]): 87.1% of control
- activity at 100 µM (NCI-H196 (lung cancer)): 117%
- POC (percent of control) NCI-H196 (NCI-H196 (lung cancer); [3]): 94.6% of control
- POC (percent of control) NCI-H196 (NCI-H196 (lung cancer); [4]): 94.2% of control
- activity at 100 µM (PC3 (prostate cancer)): 93%
- POC (percent of control) PC3 (PC3 (prostate cancer); [3]): 94.5% of control
- POC (percent of control) PC3 (PC3 (prostate cancer); [4]): 108.2% of control
- activity at 100 µM (SkBr3 (breast cancer)): 106%
- POC (percent of control) SkBr3 (SkBr3 (breast cancer); [3]): 83.5% of control
- POC (percent of control) SkBr3 (SkBr3 (breast cancer); [4]): 93.5% of control
- activity at 100 µM (T47D (breast cancer)): 85.3%
- POC (percent of control) T47D (T47D (breast cancer); [3]): 62.5% of control
- POC (percent of control) T47D (T47D (breast cancer); [4]): 109.3% of control
